Entries after “also recorded” stand apart in the source; their conditions may differ. Read-outs that look alike come from different tables or passages of the source.
What was measured:
[1] = tested on: PDE1B; details: printed under head 'Inhibition of PDE1B at 1000 nM'; cited from earlier work
[2] = molecular target: T1, PDE9A (Homo sapiens, UniProt O76083); test: Enzymatic assay against PDE9A (3H-cGMP substrate); assay type: biochemical
T1 construct: pET-PDE9A2 plasmid (catalytic domain, 181–506); made in house; host or cells: E. coli BL21 (Codonplus)
Procedure: The E. coli cells carrying pET-PDE9A2 was grown in LB medium (containing 100 μg/ml ampicillin and 0.4% glucose) at 37 °C until OD600 = 0.6–0.8. 0.1 mM iso-propyl-β-D-thiogalactopyranoside was added to induce the PDE9A2 protein expression at 15 °C for 20 h. PDE9A was purified on the nickel nitriloacetic acid (Ni-NTA) column (Qiagen, Hilden, Germany) and eluted with 0.25 M imidazole. The concentration of PDE9A was estimated by the absorbance at 280 nm (calculated using ProtParam software, http://web.expasy.org/protparam). A typical batch of purification yielded 30–60 mg PDE9A2 protein from a 0.5 l cell culture. The PDE9A2 proteins had purity greater than 90% as shown by sodium dodecyl sulphate polyacrylamide gel electrophoresis (SDS-PAGE).
The enzymatic activities of the catalytic domain of PDE9A2 were measured by using ^3H-cGMP as the substrate and the assay buffer of 50 mM Tris-HCl (pH 8.0), 10 mM MgCl2, and 1 mM DTT. Each assay used ^3H-cGMP 20,000–30,000 cpm. The reaction was carried out at room temperature (25 °C) for 15 min and then terminated by addition of 0.2 M ZnSO4. The reaction product was precipitated by 0.2 N Ba(OH)2, whereas unreacted ^3H-cGMP remained in the supernatant. […] At least eight concentrations of inhibitors were measured parallel in each measurement, resulting an inhibition curve to calculate the IC50 value of inhibitors by nonlinear regression. Each measurement was repeated at least three times. The mean and standard deviation statistics of these three IC50 values were used as the final IC50 value and the corresponding SD.

[3] = molecular target: T2, PDE1B (Homo sapiens, UniProt Q01064); test: Enzymatic assay against PDE1B (3H-cGMP substrate); assay type: biochemical; details: 1000 nM (1 μM)
T2 construct: The catalytic domains of PDE1B (10–516) and PDE8A (480–820); made in house
Procedure: (§2) The enzymatic activities of PDE1B and PDE8A were assayed by using ^3H-cGMP and ^3H-cAMP as the substrates, respectively, following the same procedure for PDE9A.

[4] = tested on: PDE1B; test: Enzymatic assay against PDE1B (3H-cGMP substrate); assay type: biochemical; details: estimated from inhibition at 1 μM
Procedure: as §2

[5] = molecular target: T3, PDE8A (Homo sapiens, UniProt O60658); test: Enzymatic assay against PDE8A (3H-cAMP substrate); assay type: biochemical
T3 construct: The catalytic domains of PDE1B (10–516) and PDE8A (480–820); made in house
Procedure: as §2

[6] = Antioxidant activity, oxygen radical absorbance capacity fluorescein (ORAC-FL) method; details: for ORAC: samples 1–10 μM
Procedure: The antioxidant activity was determined by the modified oxygen radical absorbance capacity fluorescein (ORAC-FL) method[31]^,[32]. All the assays were diluted with 75 mM phosphate buffer (pH 7.4). The final reaction mixture was 200 μl. Test compound (20 μl) and fluorescein (120 μl, 150 nM final concentration) were placed in the wells of a black 96-well plate. After the mixture was incubated at 37 °C for 15 min, AAPH solution (60 μl, 12 mM final concentration) was added. The plate was placed in a Spectrafluor Plus plate reader (Tecan, Crailsheim, Germany) and the fluorescence was recorded every minute for 4 h with excitation at 485 nm and emission at 535 nm. Trolox was used as standard (1–8 μM, final concentration). A blank (FL + AAPH) in phosphate buffer instead of test compounds and trolox calibration were performed in each assay. The samples were measured at different concentration (1–10 μM). All the reaction mixture was prepared fourfold and at least three independent assays were performed for each sample. Fluorescence in time course was normalised on basis of the blank (without antioxidants). The ORAC-FL values were calculated as the reported method. ORAC-FL values were expressed as trolox equivalents.

[7] = In vitro cell viability assay (MTT); assay type: cell-based, human; details: human, SH-SY5Y cells, 48 h incubation, read-out: cellular viability
Procedure: (§1) SH-SY5Y cells were used for the cytotoxicity test by the MTT (3–(4, 5-dimethyl-2-thiazolyl)-2,5-diphenyl-2-H-tetrazoliumbromide) method. After incubation of the SH-SY5Y cells (5 × 10^3) in a 96-well plate for 24 h, compounds at concentrations of 10, 20, 40, 60, 80, and 100 μM, were added. After incubation for 48 h, MTT solution was added to each cell well and the system was further inoculated for 4 h at 37 °C. The purple formazan dye and 120 μl DMSO were added to the cells and the absorbance was measured at 570 nm using EnSpire-2300 Multimode Reader (PerkinElmer, Waltham, MA).

[8] = tested on: SH-SY5Y cells; test: In vitro cell viability assay (MTT); assay type: cell-based, human; details: for cytotoxicity to SH-SY5Y cells (in words): 48 h, up to 100 μM
Procedure: as §1

[9] = Table 1 and text, means of three independent determinations, read-out: IC50±SD

T1 sequence (O76083 241-566): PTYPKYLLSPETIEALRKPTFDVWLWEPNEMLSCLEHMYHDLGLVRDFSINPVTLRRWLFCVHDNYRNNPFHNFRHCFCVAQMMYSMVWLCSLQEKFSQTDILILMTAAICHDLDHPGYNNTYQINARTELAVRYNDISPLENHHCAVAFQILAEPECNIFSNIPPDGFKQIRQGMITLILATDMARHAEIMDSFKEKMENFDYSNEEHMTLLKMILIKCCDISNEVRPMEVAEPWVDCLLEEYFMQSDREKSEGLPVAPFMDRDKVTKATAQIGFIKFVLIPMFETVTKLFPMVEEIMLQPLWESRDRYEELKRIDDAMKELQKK
T3 sequence (O60658 480-820): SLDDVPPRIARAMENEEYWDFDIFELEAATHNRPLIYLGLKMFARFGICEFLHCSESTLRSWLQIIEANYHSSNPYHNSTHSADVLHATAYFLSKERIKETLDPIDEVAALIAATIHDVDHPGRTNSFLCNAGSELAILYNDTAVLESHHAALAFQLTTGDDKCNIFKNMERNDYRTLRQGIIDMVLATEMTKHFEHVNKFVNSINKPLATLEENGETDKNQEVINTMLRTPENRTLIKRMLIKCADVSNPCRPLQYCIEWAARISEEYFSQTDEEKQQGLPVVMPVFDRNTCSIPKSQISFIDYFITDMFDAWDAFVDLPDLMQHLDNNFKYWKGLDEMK
T2 sequence (Q01064 10-516): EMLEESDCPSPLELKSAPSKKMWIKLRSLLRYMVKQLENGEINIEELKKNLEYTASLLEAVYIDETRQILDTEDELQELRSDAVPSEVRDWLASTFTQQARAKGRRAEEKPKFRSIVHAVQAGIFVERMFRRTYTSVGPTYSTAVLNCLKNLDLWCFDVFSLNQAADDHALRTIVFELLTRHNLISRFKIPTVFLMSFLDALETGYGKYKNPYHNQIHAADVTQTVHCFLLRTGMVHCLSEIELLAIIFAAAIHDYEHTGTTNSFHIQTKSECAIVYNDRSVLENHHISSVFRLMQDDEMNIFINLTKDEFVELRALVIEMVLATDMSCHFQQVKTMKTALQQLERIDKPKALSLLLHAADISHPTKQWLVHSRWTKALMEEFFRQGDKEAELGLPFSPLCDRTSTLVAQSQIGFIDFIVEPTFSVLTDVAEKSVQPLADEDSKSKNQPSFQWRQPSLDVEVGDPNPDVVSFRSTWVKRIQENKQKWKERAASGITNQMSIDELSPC

SMILES	IC50 [2, 9] [nM]	ORAC [6] [trolox equivalents]	ORAC-FL value / antioxidant activity (in words) [6]	other results
C[C@@H]1CN(Cc2ncccn2)C[C@H]1c1nc2c(cnn2C2CCOCC2)c(=O)[nH]1 [PF-04447943, 6-[(3S,4S)-4-Methyl-1-(pyrimidin-2-ylmethyl)pyrrolidin-3-yl]-1-(tetrahydro-2H-pyran-4-yl)-1,5-dihydro-4H-pyrazolo[3,4-d]pyrimidin-4-one]				IC50 [1]: 1390 nM
C[C@@H](NC(=O)/C=C/c1cccc(O)c1)c1nc2c(cnn2C2CCCC2)c(=O)[nH]1 [Compound 1h, (R, E)-N-(1–(1-cyclopentyl-4-oxo-4,5-dihydro-1H-pyrazolo[3,4-d]pyrimidin-6-yl)ethyl)-3–(3-hydroxyphenyl)acrylamide]	56 ± 7	3.3		IC50 ([2]; Table 2, read-out: IC50 (nM) of PDE9A): 56 ± 1 nM; inhibition at 1 µM [3]: 13%; fold of selectivity against PDE9 over PDE1B [4]: > 25 fold; inhibition at 10 µM [5]: 10%; fold of selectivity against PDE9 over PDE8A ([5]; estimated from inhibition at 10 μM): > 250 fold; viability at 48 h, 40 µM ([7]; 40 μM): ~90%; viability at 48 h, 100 µM ([7]; 100 μM): ~70%; cytotoxicity to SH-SY5Y cells (in words) [8]: no cytotoxicity; also recorded: not toxic
C[C@@H](NC(=O)/C=C/c1ccc(O)c(O)c1)c1nc2c(cnn2C2CCCC2)c(=O)[nH]1 [Compound 1b, (R, E)-N-(1–(1-cyclopentyl-4-oxo-4,5-dihydro-1H-pyrazolo[3,4-d]pyrimidin-6-yl)ethyl)-3–(3,4-dihydroxyphenyl)acrylamide]	64 ± 2	2.5		
C[C@@H](NC(=O)/C=C/c1ccc(N(C)C)cc1)c1nc2c(cnn2C2CCCC2)c(=O)[nH]1 [Compound 1i, (R, E)-N-(1–(1-cyclopentyl-4-oxo-4,5-dihydro-1H-pyrazolo[3,4-d]pyrimidin-6-yl)ethyl)-3–(4-(dimethylamino)phenyl)acrylamide]	133 ± 22	1.00		
C[C@@H](NC(=O)/C=C/c1ccc(O)cc1)c1nc2c(cnn2C2CCCC2)c(=O)[nH]1 [Compound 1g, (R, E)-N-(1–(1-cyclopentyl-4-oxo-4,5-dihydro-1H-pyrazolo[3,4-d]pyrimidin-6-yl)ethyl)-3–(4-hydroxyphenyl)acrylamide]	63 ± 3	2.9		
Cc1c(C)c2c(c(C)c1O)CCC(C)(C(=O)N[C@H](C)c1nc3c(cnn3C3CCCC3)c(=O)[nH]1)O2 (stereo partly drawn) [Compound 3, N-((R)-1–(1-cyclopentyl-4-oxo-4,5-dihydro-1H-pyrazolo[3,4-d]pyrimidin-6-yl)ethyl) -6-hydroxy-2,5,7,8-tetramethylchromane-2-carboxamide]	> 500	0.24		
COc1cc(/C=C/C(=O)O)ccc1O [Ferulic acid, reference compound]		1.6		
C[C@@H](NC(=O)/C=C/c1ccc(C(F)(F)F)cc1)c1nc2c(cnn2C2CCCC2)c(=O)[nH]1 [Compound 1k, (R, E)-N-(1–(1-cyclopentyl-4-oxo-4,5-dihydro-1H-pyrazolo[3,4-d]pyrimidin-6-yl)ethyl)-3–(4-(trifluoromethyl)phenyl)acrylamide]	130 ± 6	0.02	low ORAC-FL values	
C[C@@H](NC(=O)/C=C/c1cccc(Cl)c1)c1nc2c(cnn2C2CCCC2)c(=O)[nH]1 [Compound 1j, (R, E)-N-3–(3-chlorophenyl)-N-(1–(1-cyclopentyl-4-oxo-4,5-dihydro-1H-pyrazolo[3,4-d]pyrimidin-6-yl)ethyl)acrylamide]	186 ± 7	0.08	low ORAC-FL values	
COc1ccc(/C=C/C(=O)N[C@H](C)c2nc3c(cnn3C3CCCC3)c(=O)[nH]2)cc1O [Compound 1d, (R, E)-N-(1–(1-cyclopentyl-4-oxo-4,5-dihydro-1H-pyrazolo[3,4-d]pyrimidin-6-yl)ethyl)-3–(3-hydroxy-4-methoxyphenyl)acrylamide]	83 ± 11	1.26		
C[C@@H](NC(=O)Cc1ccc(O)c(O)c1)c1nc2c(cnn2C2CCCC2)c(=O)[nH]1 [Compound 1l, (R, E)-N-(1–(1-cyclopentyl-4-oxo-4,5-dihydro-1H-pyrazolo[3,4-d]pyrimidin-6-yl)ethyl)-2–(3,4-dihydroxyphenyl)acetamide]	57 ± 4	2.6		
COc1ccc(/C=C/C(=O)N[C@H](C)c2nc3c(cnn3C3CCCC3)c(=O)[nH]2)cc1OC [Compound 1c, (R, E)-N-(1–(1-cyclopentyl-4-oxo-4,5-dihydro-1H-pyrazolo[3,4-d]pyrimidin-6-yl)ethyl)-3– (3,4-dimethoxyphenyl)acrylamide]	65 ± 4	0.23	low ORAC-FL values	
COc1cc(/C=C/C(=O)N[C@H](C)c2nc3c(cnn3C3CCCC3)c(=O)[nH]2)ccc1O [Compound 1a, (R, E)-N-(1–(1-cyclopentyl-4-oxo-4,5-dihydro-1H-pyrazolo[3,4-d]pyrimidin-6-yl)ethyl)-3–(4-hydroxy-3-methoxyphenyl)acrylamide]	126 ± 15	2.4		
C[C@@H](NC(=O)CCCC[C@@H]1CCSS1)c1nc2c(cnn2C2CCCC2)c(=O)[nH]1 [Compound 2, N-((1N)-1–(1-cyclopentyl-4-oxo-3a, 4,5,6-tetrahydro-1H-pyrazolo[3,4-d]pyrimi–din-6-yl)ethyl)-5-((R)-1,2-dithiolan-3-yl)pentanamide]		0.28	low antioxidant activity	inhibition at 1 µM [3]: 59%; inhibition at 10 µM [5]: 9%; cellular viability ([8]; 100 μM, 48 h incubation): no significant effect on cell viability; cytotoxicity to SH-SY5Y cells (in words) [8]: not toxic
COc1cccc(/C=C/C(=O)N[C@H](C)c2nc3c(cnn3C3CCCC3)c(=O)[nH]2)c1 [Compound 1f, (R, E)-N-(1–(1-cyclopentyl-4-oxo-4,5-dihydro-1H-pyrazolo[3,4-d]pyrimidin-6-yl)ethyl)-3–(3-methoxyphenyl)acrylamide]	190 ± 7	0.12	low ORAC-FL values	

Reference: paper PMC7011943, “Discovery of novel PDE9A inhibitors with antioxidant activities for treatment of Alzheimer’s disease” (Journal of Enzyme Inhibition and Medicinal Chemistry, 2017)
